Results as given in PubChem BioAssay AID1259407 (Chemical Carcinogenesis Research Information System (CCRIS), 2018).
Activity calls are given as the source filed them. How the calls were made is not given here.

Tested on: CCRIS mutagenicity, Ames/micronucleus/aberration tests
Experiment: CCRIS mutagenicity studies
[1] = Test System: AMES SALMONELLA TYPHIMURIUM, Strain/Indicator: TA98, Metabolic Activation: NONE, Method: STANDARD PLATE
[2] = Test System: AMES SALMONELLA TYPHIMURIUM, Strain/Indicator: TA100, Metabolic Activation: NONE, Method: STANDARD PLATE
[3] = Test System: AMES SALMONELLA TYPHIMURIUM, Strain/Indicator: TA1535, Metabolic Activation: NONE, Method: STANDARD PLATE
[4] = Test System: AMES SALMONELLA TYPHIMURIUM, Strain/Indicator: TA1537, Metabolic Activation: NONE, Method: STANDARD PLATE
[5] = Test System: AMES SALMONELLA TYPHIMURIUM, Strain/Indicator: TA100, Metabolic Activation: NONE, Method: PREINCUBATION
[6] = Test System: AMES SALMONELLA TYPHIMURIUM, Strain/Indicator: TA102, Metabolic Activation: NONE, Method: STANDARD PLATE

SMILES: c1ccc2c(c1)c1cccc3c4ccccc4c4cccc2c4c13
- mutagenic call (Test System: HUMAN H1A1V2 CELLS, Strain/Indicator: TK LOCUS, Metabolic Activation: NONE, Method: SUSPENSION/PLATE): active; positive

SMILES: CN(C)c1nc(=O)n(C2CCCCC2)c(=O)n1C
- mutagenic call (End Point: In vitro chromosomal aberrations, Test System: Chinese hamster ovary (CHO) cells, Metabolic Activation: None): active; positive
- mutagenic call (End Point: In vitro chromosomal aberrations, Test System: Chinese hamster ovary (CHO) cells, Metabolic Activation: S-9): inactive; negative

SMILES: Cc1ccc2cc3c(ccc4ccccc43)cc2c1
- mutagenic call (Test System: AMES SALMONELLA TYPHIMURIUM, Strain/Indicator: TA100, Metabolic Activation: RAT, INTACT HEPATOCYTES, AROCLOR 1254, Method: PREINCUBATION): active; positive
- mutagenic call (Test System: AMES SALMONELLA TYPHIMURIUM, Strain/Indicator: TA100, Metabolic Activation: RAT, NADPH-FORTIFIED HOMOGENIZED HEPATOCYTES, AROCLOR 1254, Method: PREINCUBATION): active; positive
- mutagenic call (Test System: AMES SALMONELLA TYPHIMURIUM, Strain/Indicator: TA100, Metabolic Activation: RAT, SONICATED HEPATOCYTES, AROCLOR 1254, Method: PREINCUBATION): active; positive

SMILES: O=C(c1ccccc1)n1ncc(Cl)c(Cl)c1=O
- mutagenic call [1]: inactive; negative
- mutagenic call (Test System: AMES SALMONELLA TYPHIMURIUM, Strain/Indicator: TA98, Metabolic Activation: RAT, LIVER, S-9, AROCLOR 1254, Method: STANDARD PLATE): inactive; negative
- mutagenic call [2]: inactive; negative
- mutagenic call (Test System: AMES SALMONELLA TYPHIMURIUM, Strain/Indicator: TA100, Metabolic Activation: RAT, LIVER, S-9, AROCLOR 1254, Method: STANDARD PLATE): inactive; negative
- mutagenic call [3]: inactive; negative
- mutagenic call (Test System: AMES SALMONELLA TYPHIMURIUM, Strain/Indicator: TA1535, Metabolic Activation: RAT, LIVER, S-9, AROCLOR 1254, Method: STANDARD PLATE): inactive; negative
- mutagenic call [4]: inactive; negative
- mutagenic call (Test System: AMES SALMONELLA TYPHIMURIUM, Strain/Indicator: TA1537, Metabolic Activation: RAT, LIVER, S-9, AROCLOR 1254, Method: STANDARD PLATE): inactive; negative

SMILES: CC(C)CN(CC(C)C)CC(C)C
- mutagenic call (Test System: AMES SALMONELLA TYPHIMURIUM, Strain/Indicator: TA98, Metabolic Activation: HAMSTER, LIVER, S-9, AROCLOR 1254 (10%), Method: PREINCUBATION): inactive; negative
- mutagenic call (Test System: AMES SALMONELLA TYPHIMURIUM, Strain/Indicator: TA98, Metabolic Activation: NONE, Method: PREINCUBATION): inactive; negative
- mutagenic call (Test System: AMES SALMONELLA TYPHIMURIUM, Strain/Indicator: TA98, Metabolic Activation: RAT, LIVER, S-9, AROCLOR 1254 (10%), Method: PREINCUBATION): inactive; negative
- mutagenic call (Test System: AMES SALMONELLA TYPHIMURIUM, Strain/Indicator: TA100, Metabolic Activation: HAMSTER, LIVER, S-9, AROCLOR 1254 (10%), Method: PREINCUBATION): inactive; negative
- mutagenic call [5]: inactive; negative
- mutagenic call (Test System: AMES SALMONELLA TYPHIMURIUM, Strain/Indicator: TA100, Metabolic Activation: RAT, LIVER, S-9, AROCLOR 1254 (10%), Method: PREINCUBATION): inactive; negative
- mutagenic call (Test System: AMES SALMONELLA TYPHIMURIUM, Strain/Indicator: TA1535, Metabolic Activation: HAMSTER, LIVER, S-9, AROCLOR 1254 (10%), Method: PREINCUBATION): inactive; negative
- mutagenic call (Test System: AMES SALMONELLA TYPHIMURIUM, Strain/Indicator: TA1535, Metabolic Activation: NONE, Method: PREINCUBATION): inactive; negative
- mutagenic call (Test System: AMES SALMONELLA TYPHIMURIUM, Strain/Indicator: TA1535, Metabolic Activation: RAT, LIVER, S-9, AROCLOR 1254 (10%), Method: PREINCUBATION): inactive; negative
- mutagenic call (Test System: AMES SALMONELLA TYPHIMURIUM, Strain/Indicator: TA1537, Metabolic Activation: HAMSTER, LIVER, S-9, AROCLOR 1254 (10%), Method: PREINCUBATION): inactive; negative
- mutagenic call (Test System: AMES SALMONELLA TYPHIMURIUM, Strain/Indicator: TA1537, Metabolic Activation: NONE, Method: PREINCUBATION): inactive; negative
- mutagenic call (Test System: AMES SALMONELLA TYPHIMURIUM, Strain/Indicator: TA1537, Metabolic Activation: RAT, LIVER, S-9, AROCLOR 1254 (10%), Method: PREINCUBATION): inactive; negative

SMILES: O=[N+]([O-])c1ccc(-c2nc(NCCO)c3ccccc3n2)s1
- mutagenic call [1]: active; positive
- mutagenic call [2]: active; positive

SMILES: CNC(=O)CSP(=S)(OC)OC
- mutagenic call (End Point: In vitro chromosomal aberrations, Test System: Human lymphocytes, Metabolic Activation: None): active; positive (structural changes and ploidy)
- mutagenic call (Test System: AMES SALMONELLA TYPHIMURIUM, Strain/Indicator: G46, Metabolic Activation: HOST-MEDIATED, Method: STANDARD PLATE): active; positive
- mutagenic call (Test System: AMES SALMONELLA TYPHIMURIUM, Strain/Indicator: TA97A, Metabolic Activation: NONE, Method: STANDARD PLATE): inactive; negative
- mutagenic call (Test System: AMES SALMONELLA TYPHIMURIUM, Strain/Indicator: TA97A, Metabolic Activation: PLANT, HOMOGENATE, S-14, Method: STANDARD PLATE): inactive; negative
- mutagenic call (Test System: AMES SALMONELLA TYPHIMURIUM, Strain/Indicator: TA97A, Metabolic Activation: S-9, Method: STANDARD PLATE): inactive; negative
- mutagenic call [1]: inactive; negative
- mutagenic call (Test System: AMES SALMONELLA TYPHIMURIUM, Strain/Indicator: TA98, Metabolic Activation: PLANT, HOMOGENATE, S-14, Method: STANDARD PLATE): inactive; negative
- mutagenic call (Test System: AMES SALMONELLA TYPHIMURIUM, Strain/Indicator: TA98, Metabolic Activation: RAT, LIVER, S-9, Method: STANDARD PLATE): inactive; negative
- mutagenic call (Test System: AMES SALMONELLA TYPHIMURIUM, Strain/Indicator: TA98, Metabolic Activation: S-9, NADPH GENERATING SYSTEM, Method: STANDARD PLATE): inactive; negative
- mutagenic call (Test System: AMES SALMONELLA TYPHIMURIUM, Strain/Indicator: TA98, Metabolic Activation: S-9, Method: STANDARD PLATE): inactive; negative
- mutagenic call (Test System: AMES SALMONELLA TYPHIMURIUM, Strain/Indicator: TA98, Metabolic Activation: WHEAT SEEDLING, S-14, Method: STANDARD PLATE): inactive; negative
- mutagenic call [5]: active; positive
- mutagenic call [2]: inactive; negative
- mutagenic call (Test System: AMES SALMONELLA TYPHIMURIUM, Strain/Indicator: TA100, Metabolic Activation: PLANT, HOMOGENATE, S-14, Method: STANDARD PLATE): inactive; negative
- mutagenic call (Test System: AMES SALMONELLA TYPHIMURIUM, Strain/Indicator: TA100, Metabolic Activation: S-9, Method: STANDARD PLATE): inactive; negative
- mutagenic call (Test System: AMES SALMONELLA TYPHIMURIUM, Strain/Indicator: TA100, Metabolic Activation: S-9 MIX, Method: STANDARD PLATE): active; positive
- mutagenic call [6]: inactive; negative
- mutagenic call (Test System: AMES SALMONELLA TYPHIMURIUM, Strain/Indicator: TA102, Metabolic Activation: RAT, LIVER, S-9, Method: STANDARD PLATE): inactive; negative
- mutagenic call (Test System: AMES SALMONELLA TYPHIMURIUM, Strain/Indicator: TA102, Metabolic Activation: S-9, NADPH GENERATING SYSTEM, Method: STANDARD PLATE): inactive; negative
- mutagenic call (Test System: AMES SALMONELLA TYPHIMURIUM, Strain/Indicator: TA102, Metabolic Activation: WHEAT SEEDLING, S-14, Method: STANDARD PLATE): inactive; negative
- mutagenic call [3]: inactive; negative
- mutagenic call (Test System: AMES SALMONELLA TYPHIMURIUM, Strain/Indicator: TA1535, Metabolic Activation: PLANT, HOMOGENATE, S-14, Method: STANDARD PLATE): inactive; negative
- mutagenic call (Test System: AMES SALMONELLA TYPHIMURIUM, Strain/Indicator: TA1535, Metabolic Activation: RAT, LIVER, S-9, Method: STANDARD PLATE): inactive; negative
- mutagenic call (Test System: AMES SALMONELLA TYPHIMURIUM, Strain/Indicator: TA1535, Metabolic Activation: S-9, NADPH GENERATING SYSTEM, Method: STANDARD PLATE): inactive; negative
- mutagenic call (Test System: AMES SALMONELLA TYPHIMURIUM, Strain/Indicator: TA1535, Metabolic Activation: S-9, Method: STANDARD PLATE): inactive; negative
- mutagenic call (Test System: AMES SALMONELLA TYPHIMURIUM, Strain/Indicator: TA1535, Metabolic Activation: WHEAT SEEDLING, S-14, Method: STANDARD PLATE): inactive; negative
- mutagenic call [4]: inactive; negative
- mutagenic call (Test System: AMES SALMONELLA TYPHIMURIUM, Strain/Indicator: TA1537, Metabolic Activation: S-9, NADPH GENERATING SYSTEM, Method: STANDARD PLATE): inactive; negative

SMILES: CN1CCN(c2ccc3nc(CCCCCCc4ccc5nc(-c6ccc(N(CCCl)CCCl)cc6)[nH]c5c4)[nH]c3c2)CC1
- mutagenic call [1]: inactive; negative
- mutagenic call [2]: inactive; negative
- mutagenic call [6]: inactive; negative
